Legend:
[1] = Tested for the cytotoxicity against the repair deficient xrs-6 chinese hamster ovary cell line; type: functional, cell-based; conditions: Cricetulus griseus
[2] = tested on: HCT-116; test: Tested for the cytotoxicity to inhibit replication assay against the human colon tumor cell line HCT116; type: functional, cell-based
[3] = Differential cytotoxicity was determined from the ratio between BR1(IC50) and xrs-6 (IC50); type: functional
[4] = molecular target: DNA topoisomerase II (Homo sapiens) (UniProt P11388+Q02880); test: Effect of dose dependent inhibition of TOPO II-catalyzed kDNA decatenation in vitro; conditions: Crithidia fasciculata
[5] = Concentration required to reduce ethidium bromide fluorescence to 50% of control in presence of calf thymus DNA

With `CC(=O)NCCC1=CC(=O)c2nccc3c2c1nc1ccccc13` the IC50 [1] was 136 µM, the IC50 [2] was 1.6 µM and the Ratio [3] was 1. The IC90 [4] was 8.4 µM and the Concentration for 50% ethidium displacement (C50) [5] was 54 µM.
`O=C1c2c(O)ccc(O)c2C(=O)c2c(NCCNCCO)ccc(NCCNCCO)c21` [MITOXANTRONE] gave an IC50 [1] of 0.001 µM and a Ratio [3] of 9.
With `CC(C)=CC(=O)NCCc1c2c(c3nccc4c3c1Nc1ccccc1-4)NC(=O)CS2` the IC50 [1] was 8.1 µM, the IC50 [2] was 16.3 µM and the Ratio [3] was 1. For the same compound, the Concentration for 50% ethidium displacement (C50) [5] was greater than 100 µM.
`CC(=O)NCCc1c2c3c(ccnc3c3ncsc13)-c1ccccc1N2` [KUANONIAMINE D] gave an IC50 [1] of 88.9 µM, an IC50 [2] of 7.8 µM and a Ratio [3] of 2. It also gave a Concentration for 50% ethidium displacement (C50) [5] of 62 µM.
`c1ccc2c(c1)nc1c3nc4ccccc4c4ccnc(c5nccc2c51)c43` [EILATIN] gave an IC50 [2] of 5.3 µM and a Concentration for 50% ethidium displacement (C50) [5] greater than 100 µM.
With `CC(C)=CC(=O)NCCc1c2c3c(ccnc3c3ncsc13)-c1ccccc1N2` the IC50 [1] was 80 µM, the IC50 [2] was 8.3 µM and the Ratio [3] was 1. The Concentration for 50% ethidium displacement (C50) [5] was greater than 100 µM.
Work on `COc1cc(NS(C)(=O)=O)ccc1Nc1c2ccccc2nc2ccccc12` [AMSACRINE] yielded an IC50 [1] of 0.24 µM, an IC50 [2] of 6.3 µM and a Ratio [3] of 4. For the same compound, the IC90 [4] was 33 µM.
Work on `CSC1=C(CCNC(C)=O)c2nc3ccccc3c3ccnc(c23)C1=O` [DIPLAMINE] yielded an IC50 [1] of 71.2 µM, an IC50 [2] of less than 1.4 µM and a Ratio [3] of 1. It also gave an IC90 [4] of 9.2 µM and a Concentration for 50% ethidium displacement (C50) [5] of 21 µM.
For `CC(=O)NCCc1c2c(c3nccc4c3c1Nc1ccccc1-4)NC(=O)CS2` [SHERMILAMINE B], the IC50 [1] was 14.9 µM, the IC50 [2] was 13.8 µM and the Ratio [3] was 1. It also gave a Concentration for 50% ethidium displacement (C50) [5] greater than 100 µM.
Compound `COc1cc([C@@H]2c3cc4c(cc3[C@@H](O[C@@H]3O[C@@H]5CO[C@@H](C)O[C@H]5[C@H](O)[C@H]3O)[C@H]3COC(=O)[C@H]23)OCO4)cc(OC)c1O` [ETOPOSIDE] has an IC50 [1] of 0.14 µM, an IC50 [2] of 2.5 µM and a Ratio [3] of 7. For the same compound, the IC90 [4] was 68 µM.
